Reference: publication PMC5766630, “Non-estrogenic Xanthohumol Derivatives Mitigate Insulin Resistance and Cognitive Impairment in High-Fat Diet-induced Obese Mice” (Scientific Reports, 2018)

How the values were obtained:
[1] = tested on: C2C12 cells; experiment: Seahorse OCR and ECAR measurements (mitochondrial uncoupling); assay type: cell-based, mouse; conditions: for ECAR after addition of compound: 5 µM final concentration, after oligomycin 1 μM; for Increase of OCR in the presence of oligomycin (uncoupled respiration): 5 µM compound after 1 μM oligomycin, compared to the baseline, five independent experiments
Experimental: OCR and ECAR measurements were performed with a Seahorse XF 24 Analyzer (Agilent Technologies, Inc., Santa Clara, CA, USA). C2C12 cells were plated in culture medium at a density of 40,000 cells per well in a 24-well plate. The cells were then allowed to adhere for 24 h (37 °C, 5% CO2). Prior to the assay, the cells were washed with freshly prepared running medium consisting of Seahorse XF Assay medium (Agilent Technologies, Inc., Santa Clara, CA, USA), 10 mM glucose and 1 mM sodium pyruvate. The pH of the medium was adjusted to 7.4 with 1 M NaOH. The cells were then equilibrated for one hour at 37 °C without CO2. […] To overcome this problem, the test compounds were first dissolved in ethanol and the resulting solution was diluted 100-fold in treatment medium (9 parts XF media and 1 part 10% FBS media) which was added directly to cells. The treatment medium contained 1% FBS and after a further 10-fold dilution into the media in wells, only 0.1% FBS was present during OCR and ECAR measurements. The final concentrations in the wells were: 1 μM for oligomycin, and 5 μM for XN, DXN or TXN. The concentration of oligomycin and the cell density used were selected based on preliminary experiments. Ethanol was added to the control wells not to exceed a final concentration of 0.1% (vehicle control). OCR and ECAR were measured at 9-min intervals.
Seahorse data: to show a consistent baseline, OCR values (in pmol/min/mg protein) and ECAR values (in mpH/min/mg protein) for each value were divided, prior to statistical analysis, by the average of the four pre oligomycin treatment values (0, 8, 17, and 25 min) for the corresponding well and are shown as % pre oligomycin values. To account for repeated measures within wells over time, we utilized a repeated-measures-in-time design using ANOVA procedures in PROC MIXED (SAS). Fixed effects in the model were treatment (control, 5 μM XN, 5 μM DXN, and 5 μM TXN for the compound study), time (0, 8, 17, 25, 34, 43, 52, 60, 69, 78, 86, and 95 min), and their interaction. The random effect was the experiment (5 experiments for the compound study). To account for repeated measures within wells over time, a first order homogeneous variance-covariance matrix [AR(1)] was fitted for each well. Using the ESTIMATE statement, a priori contrasts were constructed by comparing the changes in compound treated cells from the last two time points prior to compound treatment (average 52 and 60 min) to the changes in control cells during the same time-period. This was carried out for each compound and dosage for 69, 78, 86, and 95 min separately and for all four time points combined. Results are shown in the text and the graphs as least squares means and their corresponding SEM (standard error of mean). […]

[2] = tested on: C57BL/6J mice fed a high-fat diet; experiment: Water maze: spatial learning and memory; assay type: in vivo, mouse; conditions: for Reached platform location faster than control (latency to first cross), probe trial: probe trial 24 h after last hidden platform trial; for Number of mice that spent more time in the correct quadrant than in any other quadrant / Number of mice that reached the platform location within 35 seconds: probe trial; for Number of mice that spent more time in the correct quadrant than in any other quadrant: control 3 out of 12; for Number of mice that reached the platform location within 35 seconds: control 5 out of 12; for Number of mice that reached the hidden platform at least twice within 50 seconds: trials 6 to 8, control 3 out of 12
Experimental: After 13 weeks of feeding the experimental diets, general task learning, spatial learning and memory, and long-term spatial memory retention were tested using the water maze, as previously described[97],[98]. Briefly, the water maze consisted of a circular pool, filled with water (24 °C) made opaque white with non-toxic tempera paint (Prang, Dixon Ticonderoga Company, Heathrow, FL, USA). Spatial cues consisted of figures of geometric shape and other items such as toys and pieces of cloth. The cues were placed on the walls of both the room and the sides of the tank and were present throughout all water maze trials. All trials consisted of a maximum of 60 s in the water searching for the platform and 10 s on the platform. […] Trials on the same day were separated by 10 min. Mice were first trained to locate a visible escape platform (plexiglass circle, 12 cm diameter) submerged 2 cm below the surface of the water, by the use of a cue (a colored cylinder, 2.5 cm radius, 8 cm height) during the visible platform trials (1–2). The location of the platform during visible platform trials was moved between trials to avoid procedural biases in task learning to a specific quadrant. Subsequent to the visible platform training, mice were trained to locate the platform without a visible cue during the hidden platform trials (3–8), which required the mice to rely on extra-maze cues for spatial reference and orientation. To analyze learning curves, time to reach the platform (latency) and swim speeds were assessed. Spatial memory retention was assessed 24 h following the conclusion of the eighth trial of hidden platform training in the probe trial (no platform). For data analysis, the pool was divided conceptually into four quadrants. Time spent searching in the target quadrant compared to the time spent in the three non-target quadrants and the latency to the first crossing of the platform location were analyzed. Following the probe trial, mice were administered two additional visible platform trials. Thigmotaxis, a tendency to remain close the walls, is commonly used as an index of anxiety in mice. For thigmotaxis, we analyzed the time (%) mice spent swimming in the outer part of the pool (<10 cm from edge of pool) during the visible trials. Water maze performance was tracked and analyzed using Ethovision software set at 6 samples/s (Noldus Information Technology, Leesburg, VA). Heat map images were generated using EthoVision Heatmap Generator software and representative images were selected from mice closest to the group mean values for time spent in the quadrant target.
Water maze learning curves: data, except for spatial learning, were analyzed using a one-way ANOVA for single measures within animals and a repeated-measures-in-time design ANOVA for repeated measures within animals. To evaluate spatial learning, we first compared at each session the control versus each XN metabolite group. For further analysis of spatial learning, the first 3 sessions were used for training of spatial learning and the last 3 session for spatial learning. […] To show spatial learning, mice had to reach the platform during the last 3 evaluation sessions at least twice within 50 seconds. Fisher’s exact test was used to compare control versus each XN metabolite group.

Row | SMILES | ECAR after addition of compound [1] | More time in the correct (Target) quadrant than control ([2]; 60-s probe trial) [%] | Reached hidden platform faster than HFD only, trial 6 ([2]; hidden platform) [%] | Reached hidden platform faster than HFD only, trial 7 ([2]; hidden platform) [%] | Reached hidden platform faster than HFD only, trial 8 ([2]; hidden platform) [%] | Reached platform location faster than control (latency to first cross), probe trial [2] [%] | Number of mice that spent more time in the correct quadrant than in any other quadrant [2] | Number of mice that reached the platform location within 35 seconds [2] | Number of mice that reached the hidden platform at least twice within 50 seconds [2] | Increase of OCR in the presence of oligomycin (uncoupled respiration) [1] [%] | Slower swim speed versus HFD only ([2]; during the hidden platform trials) [%] | Reached hidden platform faster than HFD only, average of trials 6 to 8 ([2]; hidden platform) [%] | Reached hidden platform faster than HFD only, first hidden platform trial (trial #3) ([2]; hidden platform trial 3) [%] | Reached visible platform faster than control, first trial ([2]; visible platform trial 1, HFD mice, 30 mg/kg/day, 13 weeks) [%]
1 | COc1cc(O)c(CC=C(C)C)c(O)c1C(=O)/C=C/c1ccc(O)cc1 [XN, 3′-[3,3-dimethylallyl]-2′,4′,4-trihydroxy-6′-methoxychalcone] | significant decrease | 6.8 | 47 | 43 | 49 | 45 | all but one | all but one | all | – | – | – | – | –
2 | COc1cc(O)c(CC=C(C)C)c(O)c1C(=O)CCc1ccc(O)cc1 [DXN, α,β-Dihydroxanthohumol] | significant decrease | – | – | – | – | 58 | 9 out of 12 | all but one | 9 out of 12 | 28.7 ± 6.9 | 10 | 28 | – | –
3 | COc1cc(O)c(CCC(C)C)c(O)c1C(=O)CCc1ccc(O)cc1 [TXN, tetrahydroxanthohumol] | significant decrease | – | 44 | – | 35 | 45 | all but one | all but one | all | 56.8 ± 6.9 | – | 45 | 18 | 24
